Test results: ChEMBL document CHEMBL1201862, “PubChem BioAssay data set” (2004)
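Five concentrations, 48 hours, 96-well plates. GI50: concentration for 50% inhibition of growth.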 Activity calls are given as the source filed them. Cut-off read from the data, not from the text of the source: active = GI50 up to about 1.1 µM and inactive = higher.

How the values were obtained:
Assay in all cases: NCI anticancer screen, dose series, 48 h
SF-268 = tested on: SF-268
DU-145 = tested on: DU-145
NCI/ADR-RES = tested on: NCI/ADR-RES
HOP-62 = tested on: HOP-62
NCI-H23 = tested on: NCI-H23
SK-MEL-28 = tested on: SK-MEL-28
CCRF-CEM = tested on: CCRF-CEM
PC-3 = tested on: PC-3
OVCAR-3 = tested on: OVCAR-3
SF-539 = tested on: SF-539
HL-60 = tested on: HL-60
SK-MEL-5 = tested on: SK-MEL-5
MOLT-4 = tested on: MOLT-4
T47D = tested on: T47D
SK-OV-3 = tested on: SK-OV-3
ACHN = tested on: ACHN
M14 = tested on: M14
NCI-H522 = tested on: NCI-H522
OVCAR-8 = tested on: OVCAR-8
HOP-92 = tested on: HOP-92

Structure (SMILES)	GI50 (SF-268)	GI50 (DU-145)	GI50 (NCI/ADR-RES)	GI50 (HOP-62)	GI50 (NCI-H23)	GI50 (SK-MEL-28)	GI50 (CCRF-CEM)	GI50 (PC-3)	GI50 (OVCAR-3)	GI50 (SF-539)	GI50 (HL-60)	GI50 (SK-MEL-5)	GI50 (MOLT-4)	GI50 (T47D)	GI50 (SK-OV-3)	GI50 (ACHN)	GI50 (M14)	GI50 (NCI-H522)	GI50 (OVCAR-8)	GI50 (HOP-92)
Cc1ccc(/N=N/c2c(C)c(C#N)c(=S)n(C3OC(CO)C(O)C(O)C3O)c2-c2ccccc2)cc1 (stereo not given)	26.7 µM (inactive)	38.6 µM (inactive)	29 µM (inactive)	24.9 µM (inactive)	16.5 µM (inactive)	16.5 µM (inactive)	11.5 µM (inactive)	15 µM (inactive)	19.5 µM (inactive)	28.5 µM (inactive)	36.8 µM (inactive)	11.2 µM (inactive)	9.73 µM (inactive)	22.4 µM (inactive)	34.1 µM (inactive)	30.7 µM (inactive)	14.6 µM (inactive)	–	–	–
CCC(=O)N1C(=O)C(CC)(CC)C(=O)N1C(=O)CC	> 100 µM (inactive)	> 100 µM (inactive)	> 100 µM (inactive)	> 100 µM (inactive)	> 100 µM (inactive)	> 100 µM (inactive)	> 100 µM (inactive)	> 100 µM (inactive)	> 100 µM (inactive)	–	> 100 µM (inactive)	> 100 µM (inactive)	> 100 µM (inactive)	> 100 µM (inactive)	> 100 µM (inactive)	> 100 µM (inactive)	> 100 µM (inactive)	> 100 µM (inactive)	> 100 µM (inactive)	–
COc1ccccc1Nc1nc2c([nH]1)c(=O)n(C)c(=O)n2C	> 10 µM (inactive)	> 10 µM (inactive)	–	> 10 µM (inactive)	> 10 µM (inactive)	> 10 µM (inactive)	> 10 µM (inactive)	> 10 µM (inactive)	–	–	> 10 µM (inactive)	> 10 µM (inactive)	> 10 µM (inactive)	> 10 µM (inactive)	> 10 µM (inactive)	–	> 10 µM (inactive)	–	> 10 µM (inactive)	> 10 µM (inactive)
COc1ccc2c(c1)/C(=C\c1c(C)nc3sc(C)cn13)C(=O)N2	2.35 µM (inactive)	4.83 µM (inactive)	1.36 µM (inactive)	1.53 µM (inactive)	2.31 µM (inactive)	54.6 µM (inactive)	0.455 µM (active)	0.385 µM (active)	0.297 µM (active)	0.204 µM (active)	0.292 µM (active)	0.206 µM (active)	0.778 µM (active)	9.89 µM (inactive)	1.64 µM (inactive)	3.83 µM (inactive)	0.75 µM (active)	0.175 µM (active)	2.94 µM (inactive)	–
CC(=O)Oc1ccc2cc(-c3ccccc3OC(C)=O)c(=O)oc2c1	19.1 µM (inactive)	21.7 µM (inactive)	36.5 µM (inactive)	54.1 µM (inactive)	31.6 µM (inactive)	38.6 µM (inactive)	6.15 µM (inactive)	> 100 µM (inactive)	24.8 µM (inactive)	59.3 µM (inactive)	3.24 µM (inactive)	–	6.92 µM (inactive)	25.7 µM (inactive)	–	30.7 µM (inactive)	51.4 µM (inactive)	4.3 µM (inactive)	62.4 µM (inactive)	–
CCCCSC1=N/C(=C\c2ccco2)C(Cl)=N1	> 100 µM (inactive)	> 100 µM (inactive)	> 100 µM (inactive)	> 100 µM (inactive)	> 100 µM (inactive)	> 100 µM (inactive)	> 100 µM (inactive)	> 100 µM (inactive)	> 100 µM (inactive)	–	> 100 µM (inactive)	> 100 µM (inactive)	> 100 µM (inactive)	> 100 µM (inactive)	> 100 µM (inactive)	> 100 µM (inactive)	> 100 µM (inactive)	> 100 µM (inactive)	> 100 µM (inactive)	–
O=C(O)C1CCCCC1c1c2ccc(=O)c(O)c-2oc2c(O)c(O)ccc12 (stereo not given)	9.38 µM (inactive)	52.1 µM (inactive)	–	31.6 µM (inactive)	–	69.5 µM (inactive)	0.18 µM (active)	> 100 µM (inactive)	42.1 µM (inactive)	–	20.7 µM (inactive)	25.5 µM (inactive)	22.8 µM (inactive)	46.2 µM (inactive)	50.6 µM (inactive)	14 µM (inactive)	64.7 µM (inactive)	14.5 µM (inactive)	22 µM (inactive)	31.6 µM (inactive)
CN(/N=C/c1ccccn1)C1=NCCN1	> 100 µM (inactive)	–	> 100 µM (inactive)	> 100 µM (inactive)	> 100 µM (inactive)	> 100 µM (inactive)	> 100 µM (inactive)	> 100 µM (inactive)	> 100 µM (inactive)	> 100 µM (inactive)	> 100 µM (inactive)	> 100 µM (inactive)	> 100 µM (inactive)	> 100 µM (inactive)	> 100 µM (inactive)	> 100 µM (inactive)	> 100 µM (inactive)	> 100 µM (inactive)	> 100 µM (inactive)	> 100 µM (inactive)
CCNCCNc1c2ccccc2nc2ccccc12	1.35 µM (inactive)	1.62 µM (inactive)	2.72 µM (inactive)	0.461 µM (active)	1.26 µM (inactive)	–	1.29 µM (inactive)	0.828 µM (active)	4.05 µM (inactive)	0.745 µM (active)	2.24 µM (inactive)	1.66 µM (inactive)	0.54 µM (active)	2.38 µM (inactive)	1.07 µM (active)	0.366 µM (active)	1.39 µM (inactive)	1.04 µM (active)	1.81 µM (inactive)	–
COc1ccc2c(c1OC)C(=O)N/C2=C\c1c(CCN(C)C)cc2c(c1OC)OCO2	> 100 µM (inactive)	> 100 µM (inactive)	–	> 100 µM (inactive)	> 100 µM (inactive)	> 100 µM (inactive)	> 100 µM (inactive)	> 100 µM (inactive)	> 100 µM (inactive)	> 100 µM (inactive)	> 100 µM (inactive)	42.4 µM (inactive)	> 100 µM (inactive)	27.9 µM (inactive)	> 100 µM (inactive)	> 100 µM (inactive)	> 100 µM (inactive)	37.6 µM (inactive)	> 100 µM (inactive)	> 100 µM (inactive)
COCCn1cnc2c(Cl)nc(Nc3ccccc3)nc21	39.4 µM (inactive)	> 100 µM (inactive)	39.2 µM (inactive)	59.7 µM (inactive)	33.3 µM (inactive)	36 µM (inactive)	19.3 µM (inactive)	22.3 µM (inactive)	16.5 µM (inactive)	> 100 µM (inactive)	22.9 µM (inactive)	38.7 µM (inactive)	23.3 µM (inactive)	29.8 µM (inactive)	37.2 µM (inactive)	17.9 µM (inactive)	26.3 µM (inactive)	–	23.9 µM (inactive)	–
